A short description of data set [1]: Acute toxicity (LD50) by intraperitoneal injection to mice. The conditions noted are these: mouse, in vivo, ip, mortality 48 hours after injection. The method, then: Acute toxicity (LD50) was determined by intraperitoneal injection of a compound being tested to mice and by calculation from the mortality 48 hours after injection by the usual method.
The subject of data set [2] is ischemic cerebral edemas of rats caused by occlusion of the middle cerebral artery. As to the kind of experiment: Action upon ischemic cerebral edemas of rats caused by occlusion of the middle cerebral artery. The class given is in vivo, Wistar rats. The conditions noted are these: Rattus norvegicus, ip, 24 h, read-out: Cerebral Edema Inhibition Rate; for inhibition in vivo at 30 mg/kg: dose 30 mg/Kg i.p.; for inhibition in vivo at 25 mg/kg: dose 25 mg/Kg i.p. The method, then:
(Action upon ischemic cerebral edemas of rats caused by occlusion of the middle cerebral artery)
The compound being tested was suspended in 0.5% aqueous solution of CMC, and this suspension was intraperitoneally injected to each rat immediately after occlusion, and 8 hours and 16 hours later (a total of three times). Twenty-four hours after occlusion, each of the treated rats was sacrificed, the brain was excised, and the water content of hemispheres were determined by weighing the hemispheres before and after drying at 110° C. to the constant weight. On the other hand, the rats of the control group were subjected to arterial occlusion in the same way as above, followed by intraperitoneal injection of physiological saline three times a day. The cerebral edema inhibition rate of each compound was calculated from the following equation: [formula] where CL and CR represent the water contents of left and right hemispheres of the control group and SL and SR the water contents of left and right hemispheres of the treated group.

For data set [3], the system named is cerebral infarction of rats caused by occlusion of the middle cerebral artery. As to the kind of experiment: Action against cerebral infarction of rats caused by occlusion of the middle cerebral artery (TTC stain, planimeter). The class given is in vivo. Particulars: i.p. three times, 24 h after occlusion. The method, then:
(Action against cerebral infarction of rats caused by occlusion of the middle cerebral artery)
Cerebral infarction of rats caused by occlusion of the middle cerebral artery was measured by the method of Tamura et al. (Japan Clinics, 43, 185, 1985). The middle cerebral artery of rats was artificially occluded, the compound being tested was suspended in 0.5% aqueous solution of CMC, and this suspension was intraperitoneally injected to each rat immediately after occlusion, and 8 hours and 16 hours later (a total of three times). Twenty-four hours after occlusion, each of the treated rats was sacrificed, and the brain was excised, stained with TTC and cut into equal six parts from top to bottom. The cross-sections were photographed, and the ratio of infarcted areas to the whole brain was measured by means of a planimeter.

For data set [4] the following is noted: cited from earlier work; for protection of the brain from cerebral ischemia: literature.
The mark [5] stands for this setting: control group 11.58 ± 0.81, **1% significant difference.
The mark [6] stands for this setting: three times (immediately, 8 and 16 h after occlusion).
Setting [7] is: control group 11.58 ± 0.81, *5% significant difference.
Where [8] appears, read: dose 50 mg/Kg i.p., three times (immediately, 8 and 16 h after occlusion).

The values below come from US4839376A, “Pyrazoline derivatives for treating cerebrovascular diseases” (Mitsui Toatsu Chemicals, Inc., priority 1987, dated 1989).

Read-outs that look alike come from different tables or passages of the source.

With `O=C([O-])N1N=CCC1c1ccccc1.[Na+]` (stereo not drawn), in data set [1], the LD50 at 48 h is 710 mg/kg. In data set [2], the inhibition in vivo at 50 mg/kg was 18.6%.
Consider `O=C(c1cccnc1)N1N=CCC1c1ccccc1` (stereo not drawn) [Compound 1, 1-(3-Pyridylcarbonyl)-5-phenyl-2-pyrazoline], for which, in data set [3] (setting [5]), the “Rate of Infarcted Area” value is on record as 5.03 ± 0.49%. Further, in data set [1], the LD50 at 48 h was found to be 600 mg/kg. For the same compound, the inhibition in vivo at 30 mg/kg in data set [2] (setting [6]) turned out to be 36%.
As to `O=C(c1ccncc1)N1N=CCC1c1ccccc1` (stereo not drawn) [Compound 2, 1-(4-Pyridylcarbonyl)-5-phenyl-2-pyrazoline], the LD50 at 48 h in data set [1] is 630 mg/kg. Further, the inhibition in vivo at 30 mg/kg in data set [2] (setting [6]) amounted to 30.5%.
As to `O=C(c1ccccn1)N1N=CCC1c1ccccc1` (stereo not drawn) [Compound 3, 1-(2-Pyridylcarbonyl)-5-phenyl-2-pyrazoline], the 50% lethal dose (LD50) at 48 h in data set [1] was 560 mg/kg. In addition, the inhibition in vivo at 30 mg/kg in data set [2] (setting [6]) worked out at 15.7%.
For `COc1ccccc1C1CC=NN1C(=O)c1cccnc1` (stereo not drawn) [Compound 4, 1-(3-Pyridylcarbonyl)-5-(2-methoxyphenyl)-2-pyrazoline] the same measures were 610 mg/kg and 28.3%.
Regarding `COc1cccc(C2CC=NN2C(=O)c2cccnc2)c1` (stereo not drawn) [Compound 5, 1-(3-Pyridylcarbonyl)-5-(3-methoxyphenyl)-2-pyrazoline], the LD50 at 48 h in data set [1] was 630 mg/kg. Also, the inhibition in vivo at 30 mg/kg in data set [2] (setting [6]) was found to be 20.7%.
With `COc1ccc(C2CC=NN2C(=O)c2cccnc2)cc1` (stereo not drawn) [Compound 6, 1-(3-Pyridylcarbonyl)-5-(4-methoxyphenyl)-2-pyrazoline], the median lethal dose (LD50) at 48 h in data set [1] worked out at 830 mg/kg. For the same compound, in data set [2] (setting [6]), the inhibition in vivo at 30 mg/kg turned out to be 19.3%.
For the compound `O=C(c1cccnc1)N1N=CCC1c1ccco1` (stereo not drawn) [Compound 7, 1-(3-Pyridylcarbonyl)-5-(2-furyl)-2-pyrazoline], the “Rate of Infarcted Area” value in data set [3] (setting [7]) worked out at 6.96 ± 0.79%. The compound further registered an LD50 at 48 h in data set [1] of 1100 mg/kg. The inhibition in vivo at 30 mg/kg in data set [2] (setting [6]) was 31.2%.
In turn, `O=C(c1cnccn1)N1N=CCC1c1ccccc1` (stereo not drawn) [Compound 8, 1-Pyrazylcarbonyl-5-phenyl-2-pyrazoline] returned an LD50 at 48 h in data set [1] of 710 mg/kg. In addition, in data set [2] (setting [6]), the inhibition in vivo at 25 mg/kg stood at 33%.
For `O=C(c1cccnc1)N1N=CCC1c1ccccc1F` (stereo not drawn) [Compound 9, 1-(3-Pyridylcarbonyl)-5-(2-fluorophenyl)-2-pyrazoline] the same measures were 830 mg/kg and 29.1%.
`Cc1ccccc1C1CC=NN1C(=O)c1cccnc1` (stereo not drawn) [Compound 10, 1-(3-Pyridylcarbonyl)-5-(2-methylphenyl)-2-pyrazoline] registered an LD50 at 48 h in data set [1] of 610 mg/kg. The inhibition in vivo at 25 mg/kg in data set [2] (setting [6]) is 31.3%.
The compound `O=C(c1cccnc1)N1N=CCC1c1ccc(Cl)cc1` (stereo not drawn) [Compound 11, 1-(3-Pyridylcarbonyl)-5-(4-chlorophenyl)-2-pyrazoline] showed an LD50 at 48 h in data set [1] of 710 mg/kg. Besides, in data set [2] (setting [6]), the inhibition in vivo at 25 mg/kg was 29.3%.
In the case of `CC1CC=NN1C(=O)c1cccnc1` (stereo not drawn) [Compound 17, 1-(3-Pyridylcarbonyl)-5-methyl-2-pyrazoline], in data set [3] (setting [7]), the “Rate of Infarcted Area” value came to 8.01 ± 0.54%. Moreover, the LD50 at 48 h in data set [1] was determined as 850 mg/kg. In data set [2] (setting [6]), the inhibition in vivo at 25 mg/kg worked out at 34%.
In data set [1], `CC(C)C1CC=NN1C(=O)c1cccnc1` (stereo not drawn) [Compound 22, 1-(3-Pyridylcarbonyl)-5-isopropyl-2-pyrazoline] registered an LD50 at 48 h of 830 mg/kg. Further, in data set [2] (setting [8]), the inhibition in vivo at 50 mg/kg worked out at 27.2%.
`CCOC(=O)N1N=CCC1c1ccccc1` (stereo not drawn) [Compound 25, 1-Ethoxycarbonyl-5-phenyl-2-pyrazoline] registered an LD50 at 48 h in data set [1] of 830 mg/kg. For the same compound, in data set [2] (setting [8]), the inhibition in vivo at 50 mg/kg worked out at 27.2%.
For the compound `CCOC(=O)N1N=CCC1C` (stereo not drawn) [Compound 28, 1-Ethoxycarbonyl-5-methyl-2-pyrazoline], in data set [3] (setting [5]), the “Rate of Infarcted Area” value stood at 5.79 ± 0.43%.
`CCC1CC=NN1C(=O)OC` (stereo not drawn) [Compound 30, 1-Methoxycarbonyl-5-ethyl-2-pyrazoline]: the LD50 at 48 h in data set [1] came out at 740 mg/kg. In data set [2] (setting [6]), the inhibition in vivo at 25 mg/kg was 29.1%.
For the compound `C1=NNC(c2ccccc2)C1` (stereo not drawn) [Compound 31, 5-Phenyl-2-pyrazoline], the “Rate of Infarcted Area” value in data set [3] (setting [7]) is given as 7.93 ± 0.56%. This compound displayed a median lethal dose (LD50) at 48 h in data set [1] of 540 mg/kg. In addition, the inhibition in vivo at 25 mg/kg in data set [2] (setting [6]) is 32%.
In the same order, the values of `Clc1ccccc1C1CC=NN1` (stereo not drawn) [Compound 34, 5-(2-Chlorophenyl)-2-pyrazoline] are 8.56 ± 0.71%, 600 mg/kg and 29.1%.
In data set [1], `Cc1ccccc1C1CC=NN1` (stereo not drawn) [Compound 37, 5-(2-Methylphenyl)-2-pyrazoline] showed a 50% lethal dose (LD50) at 48 h of 680 mg/kg. In addition, the inhibition in vivo at 25 mg/kg in data set [2] (setting [6]) came out at 30.4%.
`COc1ccccc1C1CC=NN1` (stereo not drawn) [Compound 40, 5-(2-Methoxylphenyl)-2-pyrazoline] yielded an LD50 at 48 h in data set [1] of 560 mg/kg. Also, the inhibition in vivo at 25 mg/kg in data set [2] (setting [6]) was 25.7%.
For `Fc1cccc(C2CC=NN2)c1` (stereo not drawn) [Compound 42, 5-(3-Fluorophenyl)-2-pyrazoline], in data set [1], the 50% lethal dose (LD50) at 48 h stood at 710 mg/kg. Moreover, the inhibition in vivo at 25 mg/kg in data set [2] (setting [6]) is 23.9%.
As to `FC(F)(F)c1cccc(C2CC=NN2)c1` (stereo not drawn) [Compound 45, 5-(3-Trifluoromethylphenyl)-2-pyrazoline], the LD50 at 48 h in data set [1] came to 630 mg/kg. Besides, the inhibition in vivo at 25 mg/kg in data set [2] (setting [6]) turned out to be 30.4%.
In the case of `C1=NNC(c2ccncc2)C1` (stereo not drawn) [Compound 52, 5-(4-Pyridyl)-2-pyrazoline], the 50% lethal dose (LD50) at 48 h in data set [1] was found to be 540 mg/kg. In data set [2] (setting [6]), the inhibition in vivo at 25 mg/kg amounted to 21.8%.
For `C1=NNC(c2cccnc2)C1` (stereo not drawn) [Compound 53, 5-(3-Pyridyl)-2-pyrazoline] the same measures were 600 mg/kg and 16.7%.
Compound `CC(=O)N1N=CCC1c1ccccc1` (stereo not drawn) [Compound 56, -Acetyl-5-phenyl-2-pyrazoline] showed an LD50 at 48 h in data set [1] of 1100 mg/kg. The inhibition in vivo at 25 mg/kg in data set [2] (setting [6]) was 15.9%.
Turning to `O=C(c1ccccc1)N1N=CCC1c1ccccc1` (stereo not drawn) [Compound 59, 1-Benzoyl-5-phenyl-2-pyrazoline], the “Rate of Infarcted Area” value in data set [3] (setting [7]) was 7.69 ± 0.67%. This compound yielded an LD50 at 48 h in data set [1] of 600 mg/kg. In addition, the inhibition in vivo at 30 mg/kg in data set [2] (setting [6]) was 21.7%.
Compound `O=C(c1ccc(C(F)(F)F)cc1)N1N=CCC1c1ccccc1` (stereo not drawn) [Compound 60, 1-(4-Trifluoromethylbenzoyl)-5-phenyl-2-pyrazoline] showed an LD50 at 48 h in data set [1] of 810 mg/kg. In addition, in data set [2] (setting [6]), the inhibition in vivo at 30 mg/kg amounted to 20.9%.
`O=C(CN1N=CCC1c1ccccc1)c1ccccc1` (stereo not drawn) [Compound 61, 1-Benzoylmethyl-5-phenyl-2-pyrazoline] gave an LD50 at 48 h in data set [1] of 540 mg/kg. In data set [2] (setting [6]), the inhibition in vivo at 30 mg/kg amounted to 16.7%.
As for `O=C(C1CCCCC1)N1N=CCC1c1ccccc1` (stereo not drawn) [Compound 62, 1-Cyclohexylcarbonyl-5-phenyl-2-pyrazoline], the LD50 at 48 h in data set [1] was 630 mg/kg. Besides, in data set [2] (setting [6]), the inhibition in vivo at 30 mg/kg worked out at 15.3%.
As to `O=C(c1ccco1)N1N=CCC1c1ccccc1` (stereo not drawn) [Compound 63, 1-(2-Furylcarbonyl)-5-phenyl-2-pyrazoline], the LD50 at 48 h in data set [1] came to 710 mg/kg. Also, the inhibition in vivo at 30 mg/kg in data set [2] (setting [6]) was found to be 26.1%.
In data set [1], `O=C(c1cccs1)N1N=CCC1c1ccccc1` (stereo not drawn) [Compound 64, 1-(2-Thienylcarbonyl)-5-phenyl-2-pyrazoline] displayed an LD50 at 48 h of 830 mg/kg. Besides, the inhibition in vivo at 30 mg/kg in data set [2] (setting [6]) worked out at 28.5%.
In data set [1], `O=C(Nc1cccnc1)N1N=CCC1c1ccccc1` (stereo not drawn) [Compound 65, 1-[N-(3-pyridyl)carbamoyl]-5-phenyl-2-pyrazoline] displayed an LD50 at 48 h of 630 mg/kg. In addition, in data set [2] (setting [6]), the inhibition in vivo at 25 mg/kg was found to be 27.1%.
Regarding `S=C(Nc1cccnc1)N1N=CCC1c1ccccc1` (stereo not drawn) [Compound 66, 1-[N-(3-pyridyl)thiocarbamoyl]-5-phenyl-2-pyrazoline], the LD50 at 48 h in data set [1] was determined as 560 mg/kg. For the same compound, the inhibition in vivo at 25 mg/kg in data set [2] (setting [6]) was found to be 18.9%.
Turning to `CCN(CC)Cc1nccn1-c1ccc([N+](=O)[O-])cc1C(=O)c1ccccc1Cl` [Nizofenone], in data set [4] (Japan Clinics, 43, 185, 1985), the “action to inhibit cerebral edemas” value was “no action to inhibit cerebral edemas” and the consciousness troubles entry was “helps alleviate consciousness troubles”. Also, the “protection of the brain from cerebral ischemia” value (“protection of the brain” below) in data set [4] is reported as “useful to protect the brain from cerebral ischemia”.
Turning to `CCC1(c2ccccc2)C(=O)NC(=O)N(C)C1=O` (stereo not drawn) [mefobarbital], the “protection of the brain” value in data set [4] is “protect the brain from cerebral ischemia”.
In the case of `CCCC(C)C1(CC)C(=O)NC(=O)NC1=O` (stereo not drawn) [pentobarbital], in data set [4], the “protection of the brain” value is listed as “protect the brain from cerebral ischemia”.
